Measurements as given in PubChem BioAssay (NCI).
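Dose response: 5 concentrations. Exposure: 48 h. Format: 96-well plates. Endpoint: linear interpolation; highest concentration if not reached. GI50 is the concentration that inhibits growth by half. TGI denotes the concentration required for complete inhibition of growth.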

Legend:
Test in all cases: NCI-60 cell line screen, 48 h
EKVX NSCLC = system: EKVX NSCLC
M14 melanoma = system: M14 melanoma
TK-10 renal = system: TK-10 renal
SW-620 colon = system: SW-620 colon
U251 CNS = system: U251 CNS
OVCAR-8 ovarian = system: OVCAR-8 ovarian
SF-539 CNS = system: SF-539 CNS
A498 renal = system: A498 renal
SF-268 CNS = system: SF-268 CNS
OVCAR-4 ovarian = system: OVCAR-4 ovarian
HT29 colon = system: HT29 colon
SN12C renal = system: SN12C renal
NCI-H522 lung = system: NCI-H522 lung
UACC-257 melanoma = system: UACC-257 melanoma
NCI-H226 lung = system: NCI-H226 lung
786-0 renal = system: 786-0 renal
UACC-62 melanoma = system: UACC-62 melanoma
MDA-MB-231 breast = system: MDA-MB-231 breast
CAKI-1 renal = system: CAKI-1 renal
MOLT-4 leukemia = system: MOLT-4 leukemia
K-562 leukemia = system: K-562 leukemia
SK-MEL-2 melanoma = system: SK-MEL-2 melanoma
SF-295 CNS = system: SF-295 CNS
CCRF-CEM leukemia = system: CCRF-CEM leukemia
LOX IMVI melanoma = system: LOX IMVI melanoma
OVCAR-3 ovarian = system: OVCAR-3 ovarian
HOP-62 NSCLC = system: HOP-62 NSCLC
SNB-75 CNS = system: SNB-75 CNS
HL-60(TB) leukemia = system: HL-60(TB) leukemia
HS 578T breast = system: HS 578T breast
HOP-92 NSCLC = system: HOP-92 NSCLC
KM12 colon = system: KM12 colon
COLO 205 colon = system: COLO 205 colon
HCT-15 colon = system: HCT-15 colon
RXF 393 renal = system: RXF 393 renal
SK-MEL-28 melanoma = system: SK-MEL-28 melanoma
IGROV1 ovarian = system: IGROV1 ovarian
NCI-H23 lung = system: NCI-H23 lung
SNB-19 CNS = system: SNB-19 CNS
HCT-116 colon = system: HCT-116 colon
MALME-3M melanoma = system: MALME-3M melanoma
BT-549 breast = system: BT-549 breast
UO-31 renal = system: UO-31 renal
ACHN renal = system: ACHN renal
SK-MEL-5 melanoma = system: SK-MEL-5 melanoma
DU-145 prostate = system: DU-145 prostate
NCI/ADR-RES ovarian = system: NCI/ADR-RES ovarian
NCI-H460 lung = system: NCI-H460 lung
OVCAR-5 ovarian = system: OVCAR-5 ovarian
A549 NSCLC = system: A549 NSCLC
T-47D breast = system: T-47D breast
PC-3 prostate = system: PC-3 prostate
SK-OV-3 ovarian = system: SK-OV-3 ovarian
MCF7 breast = system: MCF7 breast
SR leukemia = system: SR leukemia
MDA-MB-435 = system: MDA-MB-435
RPMI-8226 leukemia = system: RPMI-8226 leukemia
HCC-2998 colon = system: HCC-2998 colon

SMILES: Cc1ccc(C(=N)c2ccccc2Cc2cccc3ccccc23)c2ccccc12
- TGI (EKVX NSCLC): > 100 µM
- TGI (M14 melanoma): > 100 µM
- TGI (TK-10 renal): > 100 µM
- TGI (SW-620 colon): > 100 µM
- TGI (U251 CNS): > 100 µM
- TGI (OVCAR-8 ovarian): > 100 µM
- TGI (SF-539 CNS): > 100 µM
- TGI (A498 renal): > 100 µM
- TGI (SF-268 CNS): > 100 µM
- TGI (OVCAR-4 ovarian): > 100 µM
- TGI (HT29 colon): > 100 µM
- TGI (SN12C renal): > 100 µM
- TGI (NCI-H522 lung): > 100 µM
- TGI (UACC-257 melanoma): > 100 µM
- TGI (NCI-H226 lung): > 100 µM
- TGI (786-0 renal): > 100 µM
- TGI (UACC-62 melanoma): > 100 µM
- TGI (MDA-MB-231 breast): > 100 µM
- TGI (CAKI-1 renal): > 100 µM
- TGI (MOLT-4 leukemia): > 100 µM
- TGI (K-562 leukemia): > 100 µM
- TGI (SK-MEL-2 melanoma): > 100 µM
- TGI (SF-295 CNS): > 100 µM
- TGI (CCRF-CEM leukemia): > 100 µM
- TGI (LOX IMVI melanoma): > 100 µM
- TGI (OVCAR-3 ovarian): > 100 µM
- TGI (HOP-62 NSCLC): > 100 µM
- TGI (SNB-75 CNS): > 100 µM
- TGI (HL-60(TB) leukemia): > 100 µM
- TGI (HS 578T breast): > 100 µM
- TGI (HOP-92 NSCLC): > 100 µM
- TGI (KM12 colon): > 100 µM
- TGI (COLO 205 colon): > 100 µM
- TGI (HCT-15 colon): > 100 µM
- TGI (RXF 393 renal): > 100 µM
- TGI (SK-MEL-28 melanoma): > 100 µM
- TGI (IGROV1 ovarian): > 100 µM
- TGI (NCI-H23 lung): > 100 µM
- TGI (SNB-19 CNS): > 100 µM
- TGI (HCT-116 colon): > 100 µM
- TGI (MALME-3M melanoma): > 100 µM
- TGI (BT-549 breast): > 100 µM
- TGI (UO-31 renal): > 100 µM
- TGI (ACHN renal): > 100 µM
- TGI (SK-MEL-5 melanoma): > 100 µM
- TGI (DU-145 prostate): > 100 µM
- TGI (NCI/ADR-RES ovarian): > 100 µM
- TGI (NCI-H460 lung): > 100 µM
- TGI (OVCAR-5 ovarian): > 100 µM
- TGI (A549 NSCLC): > 100 µM
- TGI (T-47D breast): > 100 µM
- TGI (PC-3 prostate): > 100 µM
- TGI (SK-OV-3 ovarian): > 100 µM
- TGI (MCF7 breast): > 100 µM
- TGI (SR leukemia): > 100 µM
- TGI (MDA-MB-435): > 100 µM

SMILES: CCOc1ccccc1CCN=C1NC(=O)/C(=C/c2ccc3ncccc3c2)S1
- GI50 (M14 melanoma): 2.17 µM
- TGI (M14 melanoma): 10.4 µM
- GI50 (TK-10 renal): 1.35 µM
- TGI (TK-10 renal): > 23.3 µM
- GI50 (SW-620 colon): 0.712 µM
- TGI (SW-620 colon): 5.28 µM
- GI50 (U251 CNS): 1.2 µM
- TGI (U251 CNS): > 25 µM
- GI50 (OVCAR-8 ovarian): 3.08 µM
- TGI (OVCAR-8 ovarian): > 25 µM
- GI50 (SF-539 CNS): 0.751 µM
- TGI (SF-539 CNS): 2.95 µM
- GI50 (A498 renal): 0.744 µM
- TGI (A498 renal): 12.8 µM
- GI50 (SF-268 CNS): 1.35 µM
- TGI (SF-268 CNS): > 25 µM
- GI50 (OVCAR-4 ovarian): 1.36 µM
- TGI (OVCAR-4 ovarian): > 22.9 µM
- GI50 (HT29 colon): 0.783 µM
- TGI (HT29 colon): 3.16 µM
- GI50 (SN12C renal): 1.61 µM
- TGI (SN12C renal): > 25 µM
- GI50 (NCI-H522 lung): 0.676 µM
- TGI (NCI-H522 lung): 3.49 µM
- GI50 (UACC-257 melanoma): 10.5 µM
- TGI (UACC-257 melanoma): > 22.7 µM
- GI50 (NCI-H226 lung): 4.32 µM
- TGI (NCI-H226 lung): > 25 µM
- GI50 (786-0 renal): 1.93 µM
- TGI (786-0 renal): > 14.3 µM
- GI50 (RPMI-8226 leukemia): 1.02 µM
- TGI (RPMI-8226 leukemia): 8.38 µM
- GI50 (UACC-62 melanoma): 1.48 µM
- TGI (UACC-62 melanoma): 10.3 µM
- GI50 (MDA-MB-231 breast): 4.24 µM
- TGI (MDA-MB-231 breast): 18.6 µM
- GI50 (CAKI-1 renal): 0.75 µM
- TGI (CAKI-1 renal): > 7.13 µM
- GI50 (MOLT-4 leukemia): 4.02 µM
- TGI (MOLT-4 leukemia): > 25 µM
- GI50 (K-562 leukemia): 0.84 µM
- TGI (K-562 leukemia): 19.8 µM
- GI50 (SK-MEL-2 melanoma): 4.64 µM
- TGI (SK-MEL-2 melanoma): 11.5 µM
- GI50 (SF-295 CNS): 0.672 µM
- TGI (SF-295 CNS): > 6 µM
- GI50 (CCRF-CEM leukemia): 1.05 µM
- TGI (CCRF-CEM leukemia): 7.12 µM
- GI50 (LOX IMVI melanoma): 1.16 µM
- TGI (LOX IMVI melanoma): 7.9 µM
- GI50 (OVCAR-3 ovarian): 0.772 µM
- TGI (OVCAR-3 ovarian): 2.29 µM
- GI50 (HOP-62 NSCLC): 1.44 µM
- TGI (HOP-62 NSCLC): > 17.6 µM
- GI50 (SNB-75 CNS): 0.536 µM
- TGI (SNB-75 CNS): 7.79 µM
- GI50 (HL-60(TB) leukemia): 0.789 µM
- TGI (HL-60(TB) leukemia): 2.65 µM
- GI50 (HS 578T breast): 2.76 µM
- TGI (HS 578T breast): > 7.14 µM
- GI50 (HOP-92 NSCLC): 3.28 µM
- TGI (HOP-92 NSCLC): 14.6 µM
- GI50 (KM12 colon): 0.725 µM
- TGI (KM12 colon): 10.1 µM
- GI50 (COLO 205 colon): 0.735 µM
- TGI (COLO 205 colon): 3.07 µM
- GI50 (HCT-15 colon): 0.777 µM
- TGI (HCT-15 colon): > 25 µM
- GI50 (RXF 393 renal): 1.31 µM
- TGI (RXF 393 renal): 10.5 µM
- GI50 (SK-MEL-28 melanoma): 5.22 µM
- TGI (SK-MEL-28 melanoma): > 24.1 µM
- GI50 (IGROV1 ovarian): 1.47 µM
- TGI (IGROV1 ovarian): 15 µM
- GI50 (NCI-H23 lung): 2.1 µM
- TGI (NCI-H23 lung): > 25 µM
- GI50 (SNB-19 CNS): 1.46 µM
- TGI (SNB-19 CNS): > 25 µM
- GI50 (HCT-116 colon): 0.995 µM
- TGI (HCT-116 colon): > 9.15 µM
- GI50 (MALME-3M melanoma): 3 µM
- TGI (MALME-3M melanoma): 10.6 µM
- GI50 (BT-549 breast): 1.74 µM
- TGI (BT-549 breast): > 12.7 µM
- GI50 (UO-31 renal): 1.31 µM
- TGI (UO-31 renal): 15.9 µM
- GI50 (ACHN renal): 1.45 µM
- TGI (ACHN renal): > 25 µM
- GI50 (SK-MEL-5 melanoma): 2.05 µM
- TGI (SK-MEL-5 melanoma): 15.2 µM
- GI50 (DU-145 prostate): 1.2 µM
- TGI (DU-145 prostate): > 16.2 µM
- GI50 (NCI/ADR-RES ovarian): 1.28 µM
- TGI (NCI/ADR-RES ovarian): > 22.7 µM
- GI50 (NCI-H460 lung): 0.879 µM
- TGI (NCI-H460 lung): > 25 µM
- GI50 (OVCAR-5 ovarian): 3.09 µM
- TGI (OVCAR-5 ovarian): 15.8 µM
- GI50 (HCC-2998 colon): 3.05 µM
- TGI (HCC-2998 colon): 11.8 µM
- GI50 (A549 NSCLC): 1.23 µM
- TGI (A549 NSCLC): > 25 µM
- GI50 (T-47D breast): 1.46 µM
- TGI (T-47D breast): > 25 µM
- GI50 (PC-3 prostate): 0.562 µM
- TGI (PC-3 prostate): 3.99 µM
- GI50 (SK-OV-3 ovarian): 1.81 µM
- TGI (SK-OV-3 ovarian): 8.46 µM
- GI50 (MCF7 breast): 0.792 µM
- TGI (MCF7 breast): > 25 µM
- GI50 (SR leukemia): 0.146 µM
- TGI (SR leukemia): 3.04 µM
- GI50 (MDA-MB-435): 0.491 µM
- TGI (MDA-MB-435): 1.71 µM
